For one assay, the target named is T1, bradykinin 1 receptor (B1R) of the rat (Rattus norvegicus, UniProt P97583).
T1 construct: expressed in transfected cells
T1 sequence (P97583 1-337): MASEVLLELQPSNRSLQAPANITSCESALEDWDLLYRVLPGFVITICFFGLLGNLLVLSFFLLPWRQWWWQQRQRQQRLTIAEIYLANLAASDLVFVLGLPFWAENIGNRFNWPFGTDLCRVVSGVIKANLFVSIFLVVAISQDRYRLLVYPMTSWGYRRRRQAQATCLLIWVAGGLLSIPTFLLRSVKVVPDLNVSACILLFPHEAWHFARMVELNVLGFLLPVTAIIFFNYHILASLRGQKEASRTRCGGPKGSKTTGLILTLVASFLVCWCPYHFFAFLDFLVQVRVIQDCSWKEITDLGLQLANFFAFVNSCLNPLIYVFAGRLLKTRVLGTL
Kind of assay: FLIPR Ca2+ assay, B1R antagonism, rat. It counts as cell-based. The following applies: 10 μM test substance; CHO K1 cells with rat B1R gene (rB1R cells); Des-Arg9-bradykinin at EC80; % inhibition compared with the maximum achievable inhibition. The method, then:
The agonistic or antagonistic action of substances can be quantified on the bradykinin 1 receptor (B1R) of the human and rat species with ectopically expressing cell lines (CHO K1 cells) and with the aid of a Ca^2+-sensitive dyestuff (Fluo-4) in a fluorescent imaging plate reader (FLIPR). The figure in % activation is based on the Ca^2+ signal after addition of Lys-Des-Arg^9-bradykinin (0.5 nM) or Des-Arg^9-bradykinin (100 nM). Antagonists lead to a suppression of the Ca^2+ inflow after addition of the agonist. % inhibition compared with the maximum achievable inhibition is stated.
The agonistic or antagonistic action of substances can be determined on the bradykinin 1 receptor (B1R) of the human and rat species with the following assay. In accordance with this assay, the Ca^2+ inflow through the channel is quantified with the aid of a Ca^2+-sensitive dyestuff (type Fluo-4, Molecular Probes Europe BV, Leiden, Holland) in a fluorescent imaging plate reader (FLIPR, Molecular Devices, Sunnyvale, USA).
Chinese hamster ovary cells (CHO K1 cells) transfected stably with the human B1R gene (hB1R cells) or the B1R gene of the rat (rB1R cells) are used. For functional studies, these cells are plated out on black 96-well plates with a clear base (BD Biosciences, Heidelberg, Germany or Greiner, Frickenhausen, Germany) in a density of 20,000-35,000 cells/well. The cells are left overnight at 37° C. and 5% CO2 in culture medium (hB1R cells: Nutrient Mixture Ham's F12, Gibco Invitrogen GmbH, Karlsruhe, Germany or DMEM, Sigma-Aldrich, Taufkirchen, Germany; rB1R cells: D-MEM/F12, Gibco Invitrogen GmbH, Karlsruhe, Germany) with 10 vol. % FBS (foetal bovine serum, Gibco Invitrogen GmbH, Karlsruhe, Germany or PAN Biotech GmbH, Aidenbach, Germany).
On the following day, the cells are loaded for 60 min at 37° C. with 2.13 μM Fluo-4 (Molecular Probes Europe BV, Leiden, Holland) in HBSS buffer (Hank's buffered saline solution, Gibco Invitrogen GmbH, Karlsruhe, Germany) with 2.5 mM probenecid (Sigma-Aldrich, Taufkirchen, Germany) and 10 mM HEPES (Sigma-Aldrich, Taufkirchen, Germany). The plates are then washed 2× with HBSS buffer, and HBSS buffer which additionally contains 0.1% BSA (bovine serum albumin; Sigma-Aldrich, Taufkirchen, Germany), 5.6 mM glucose and 0.05% gelatine (Merck KGaA, Darmstadt, Germany) is added. After a further incubation of 20 minutes at room temperature, the plates are inserted into the FLIPR for the Ca^2+ measurement.
Alternatively, the plates are washed with buffer A (15 mM HEPES, 80 mM NaCl, 5 mM KCl, 1.2 mM CaCl2, 0.7 mM MgSO4, 2 g/l glucose, 2.5 mM probenecid), buffer A is added and the plates are loaded with 2.5 μM Fluo-4 and 0.025% Pluronic F127 (Sigma-Aldrich, Taufkirchen, Germany). Thereafter, the cells are washed 2× with buffer A and incubated for 30 minutes with buffer A, which additionally contains 0.05% BSA and 0.05% gelatine, at room temperature and thereafter inserted into the FLIPR for the Ca^2+ measurement.
The Ca^2+-dependent fluorescence is measured here before and after addition of substances (λex=488 nm, λem=540 nm). Quantification is by measurement of the highest fluorescence intensity (FC, fluorescence counts) over time.
The FLIPR protocol consists of 2 additions of substance. Test substances (10 μM) are first pipetted on to the cells and the Ca^2+ inflow is compared with the control (hB1R: Lys-Des-Arg^9-bradykinin >=50 nM; rB1R: Des-Arg^9-bradykinin 10 μM). This gives the figure in % activation based on the Ca^2+ signal after addition of Lys-Des-Arg^9-bradykinin (>=50 nM) or Des-Arg^9-bradykinin (10 μM).
After incubation for 10-20 minutes, Lys-Des-Arg^9-bradykinin (hB1R) or Des-Arg^9-bradykinin (rB1R) in the concentration of the EC80 is applied and the inflow of Ca^2+ is likewise determined. Antagonists lead to a suppression of the Ca^2+ inflow. % inhibition compared with the maximum achievable inhibition is calculated. […]
Consider “1-[4-pyridin-3-yl-4-(2-pyrrolidin-1-yl-ethoxy)-piperidin-1-yl]-2-[[4-[[2-(trifluoromethyl)-phenyl]sulfonyl]-3,4-dihydro-2H-[1,4]benzoxazin-3-yl]-methoxy]-ethanone [Example 110]”, for which the “B1R antagonism, rat [10 μM] % inhibition” value stood at 75%.

Still in this assay, the particulars now being: 10 μM test substance; CHO K1 cells with rat B1R gene (rB1R cells); Des-Arg9-bradykinin at EC80; % inhibition compared with the maximum achievable inhibition; 10 µM.
Take `O=C(COCC1CCc2ccccc2N1S(=O)(=O)c1ccc2ccccc2c1)N1CCC(OCCN2CCCC2)(c2cccnc2)CC1` (stereo not shown) [Example 130, 2-[[1-(naphthalen-2-ylsulfonyl)-1,2,3,4-tetrahydro-quinolin-2-yl]-methoxy]-1-[4-pyridin-3-yl-4-(2-pyrrolidin-1-yl-ethoxy)-piperidin-1-yl]-ethanone]: the “B1R antagonism, rat [10 μM] % inhibition” value is recorded as 83%.

Staying with this assay, now noted: CHO-K1, 10 μM test substance; CHO K1 cells with rat B1R gene (rB1R cells); Des-Arg9-bradykinin at EC80; % inhibition compared with the maximum achievable inhibition; read-out: B1R antagonism, rat [10 μM] % inhibition.
For orientation: inhibition means the change of the read-out against control, counted positive when it falls. As for `O=C(CCCC1CCCCN1S(=O)(=O)c1cccc2ccccc12)N1CCC(OCCN2CCCC2)(c2ccncc2)CC1` (stereo not shown) [Example 94, 4-[1-(naphthalen-1-ylsulfonyl)-piperidin-2-yl]-1-[4-pyridin-4-yl-4-(2-pyrrolidin-1-yl-ethoxy)-piperidin-1-yl]-butan-1-one], the inhibition at 10 µM was determined as 59%.
The same measure, in the same setting: for `O=C(CC1CCCCN1S(=O)(=O)c1cccc(C(F)(F)F)c1)N1CCC(OCCN2CCCC2)(c2ccc(F)cc2)CC1` (stereo not shown) [Example 72, 1-[4-(4-fluorophenyl)-4-(2-pyrrolidin-1-yl-ethoxy)-piperidin-1-yl]-2-[1-[[3-(trifluoromethyl)phenyl]sulfonyl]-piperidin-2-yl]-ethanone] the value was 62%; for `COc1cc(C)c(S(=O)(=O)N2CCCCC2CCCC(=O)N2CCC(OCCN3CCCC3)(c3ccc(F)cc3)CC2)c(C)c1` (stereo not shown) [Example 78, 1-[4-(4-fluorophenyl)-4-(2-pyrrolidin-1-yl-ethoxy)-piperidin-1-yl]-4-[1-[(4-methoxy-2,6-dimethyl-phenyl)sulfonyl]-piperidin-2-yl]-butan-1-one], 95%.
Still for that read-out and setting: for `Cc1cccc(Cl)c1S(=O)(=O)N1CCCCC1COCC(=O)N1CCC(OCCN2CCCC2)(c2ccc(C(F)(F)F)cc2)CC1` (stereo not shown) [Example 69, 2-[[1-[(2-chloro-6-methyl-phenyl)sulfonyl]-piperidin-2-yl]-methoxy]-1-[4-(2-pyrrolidin-1-yl-ethoxy)-4-[4-(trifluoromethyl)-phenyl]-piperidin-1-yl]-ethanone] the value was 97%; for `COc1cc(C)c(S(=O)(=O)N(CCOCC(=O)N2CCC(OCCN3CCCC3)(c3ccc(C(F)(F)F)cc3)CC2)C2CC2)c(C)c1` [Example 67, N-cyclopropyl-4-methoxy-2,6-dimethyl-N-[2-[2-oxo-2-[4-(2-pyrrolidin-1-yl-ethoxy)-4-[4-(trifluoromethyl)-phenyl]-piperidin-1-yl]-ethoxy]-ethyl]-benzenesulfonic acid amide], 98%.
Still for that read-out and setting: for `COc1cc(C)c(S(=O)(=O)N2CCCCC2CCOCC(=O)N2CCC(OCCN3CCCC3)(c3cccnc3)CC2)c(C)c1` (stereo not shown) [Example 123, 2-[2-[1-[(4-methoxy-2,6-dimethyl-phenyl)sulfonyl]-piperidin-2-yl]-ethoxy]-1-[4-pyridin-3-yl-4-(2-pyrrolidin-1-yl-ethoxy)-piperidin-1-yl]-ethanone] the value was 96%.
As for `O=C(CCCC1CCCCN1S(=O)(=O)c1cccc2ccccc12)N1CCC(OCCN2CCCC2)(c2cccc(F)c2)CC1` (stereo not shown) [Example 93, 1-[4-(3-fluorophenyl)-4-(2-pyrrolidin-1-yl-ethoxy)-piperidin-1-yl]-4-[1-(naphthalen-1-ylsulfonyl)-piperidin-2-yl]-butan-1-one], the inhibition at 10 µM amounted to 101%.
The same measure, in the same setting: with `O=C(CCCC1CCCCN1S(=O)(=O)c1ccccc1C(F)(F)F)N1CCC(OCCN2CCCC2)(c2cccc(F)c2)CC1` (stereo not shown) [Example 86, 1-[4-(3-fluorophenyl)-4-(2-pyrrolidin-1-yl-ethoxy)-piperidin-1-yl]-4-[1-[[2-(trifluoromethyl)-phenyl]sulfonyl]-piperidin-2-yl]-butan-1-one] the figure was 102%; with `O=C(CC1COc2ccccc2N1S(=O)(=O)c1ccc(Cl)cc1Cl)N1CCC(OCCN2CCCC2)(c2cccc(F)c2)CC1` (stereo not shown) [Example 128, 2-[4-[(2,4-dichlorophenyl)sulfonyl]-3,4-dihydro-2H-[1,4]benzoxazin-3-yl]-1-[4-(3-fluorophenyl)-4-(2-pyrrolidin-1-yl-ethoxy)-piperidin-1-yl]-ethanone], 41%.
Still for that read-out and setting: with `COc1cc(C)c(S(=O)(=O)N2CCCCC2CCOCC(=O)N2CCC(OCCN3CCCC3)(c3cccc(F)c3)CC2)c(C)c1` (stereo not shown) [Example 125, 1-[4-(3-fluorophenyl)-4-(2-pyrrolidin-1-yl-ethoxy)-piperidin-1-yl]-2-[2-[1-[(4-methoxy-2,6-dimethyl-phenyl)sulfonyl]-piperidin-2-yl]-ethoxy]-ethanone] the figure was 99%; with `O=C(CCCC1CCCCN1S(=O)(=O)c1cccc2ccccc12)N1CCC(OCCN2CCCC2)(c2cccnc2)CC1` (stereo not shown) [Example 92, 4-[1-(naphthalen-1-ylsulfonyl)-piperidin-2-yl]-1-[4-pyridin-3-yl-4-(2-pyrrolidin-1-yl-ethoxy)-piperidin-1-yl]-butan-1-one], 95%; with `CS(=O)(=O)N(CCOCC(=O)N1CCC(OCCN2CCCC2)(c2cccnc2)CC1)C(c1ccccc1)c1ccccc1` [Example 104, N-benzhydryl-N-[2-[2-oxo-2-[4-pyridin-3-yl-4-(2-pyrrolidin-1-yl-ethoxy)-piperidin-1-yl]-ethoxy]-ethyl]-methanesulfonic acid amide], 100%.
Still for that read-out and setting: with `CN(CCCC(=O)N1CCC(OCCN2CCCC2)(c2cccc(F)c2)CC1)S(=O)(=O)c1cccc(C(F)(F)F)c1` [Example 127, N-[4-[4-(3-fluorophenyl)-4-(2-pyrrolidin-1-yl-ethoxy)-piperidin-1-yl]-4-oxo-butyl]-N-methyl-3-(trifluoromethyl)-benzenesulfonic acid amide] the figure was 49%; with `Cc1cccc(Cl)c1S(=O)(=O)N(CCOCC(=O)N1CCC(OCCN2CCCC2)(c2ccc(C(F)(F)F)cc2)CC1)C1CC1` [Example 71, 2-chloro-N-cyclopropyl-6-methyl-N-[2-[2-oxo-2-[4-(2-pyrrolidin-1-yl-ethoxy)-4-[4-(trifluoromethyl)-phenyl]-piperidin-1-yl]-ethoxy]-ethyl]-benzenesulfonic acid amide], 95%.

These data come from US8318769B2, “Substituted sulfonamide compounds” (Gruenethal GmbH, priority 2008, dated 2012).
